Measured values from patent US5196427A, “3-aryl-4(3H) quinazolinone CCK antagonists and pharmaceutical formulations thereof” (Eli Lilly and Company, priority 1991, dated 1993).
Read-outs that look alike come from different tables or passages of the source.

Columns and labels:
[1] = biological target: T1, Brain CCK receptor (Mus musculus, UniProt P56481); experiment: Brain CCK receptor binding (mouse brain membranes, 125I-CCK-8 sulfate); details: for IC50: mouse brain membranes, Mean ± SEM, n = 3, values without SEM n = 1, read-out: Brain IC50
T1 construct: from tissue; host or cells: forebrain membranes of male CF-1 mice
T1 sequence (P56481 1-453): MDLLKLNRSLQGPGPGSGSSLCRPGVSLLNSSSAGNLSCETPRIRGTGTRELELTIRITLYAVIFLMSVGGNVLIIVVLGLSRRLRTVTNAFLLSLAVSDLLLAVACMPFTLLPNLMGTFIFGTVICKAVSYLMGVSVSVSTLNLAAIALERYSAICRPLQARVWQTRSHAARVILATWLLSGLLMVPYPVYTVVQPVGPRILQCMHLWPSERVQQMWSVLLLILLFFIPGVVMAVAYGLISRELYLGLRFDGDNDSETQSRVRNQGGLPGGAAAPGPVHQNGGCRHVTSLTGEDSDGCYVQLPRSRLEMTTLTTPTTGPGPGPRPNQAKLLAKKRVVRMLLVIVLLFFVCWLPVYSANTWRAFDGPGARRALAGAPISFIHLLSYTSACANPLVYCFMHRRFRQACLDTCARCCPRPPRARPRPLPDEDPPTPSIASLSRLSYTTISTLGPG
Method: Brain CCK receptor binding was performed using mouse brain membranes according to the method of Chang and Lotti (Proc. Natl. Acad. Sci. 83: 4923-4926, 1986). Male CF-1 mice, 23-25 g were sacrificed by cervical dislocation, the forebrain removed and placed in ice cold 50 mM Tris buffer, pH 7.4. The tissue was homogenized in 100 volumes of the Tris buffer with a Brinkman Polytron or Tekmar Tissumizer and then centrifuged at 40,000 g for 10 min. Pellets were resuspended in Tris buffer, centrifuged as above and then resuspended in 100 volumes of assay buffer, pH 6.5 (20 mM N-2-hydroxyethyl-piperazine-N'-2-ethane sulfonic acid (HEPES), 1 mM ethylene glycol bis(2-aminoethyl ether-N,N,N',N'-tetraaceticacid) (EGTA), 5 mM MgCl2, 130 mM NaCl, and 0.25 mg/ml bacitracin). The binding assay consisted of 50 μL of compound (or buffer for total binding), 50 μL of ^125 I-CCK-8 sulfate (20 pM) (Amersham IM-159), 200 μL of assay buffer and 200 μL of homogenate (80-120 μg protein). The samples were incubated at room temperature (25°) for 2 hours, and they were then filtered through GF/B glass fiber filters (soaked in wash buffer for 2 hours before use) using a 48 well Brandel cell harvester designed for receptor binding. The filters were washed twice with 3 ml of 50 mM Tris buffer, pH 7.4, containing 0.01% BSA and then counted for radioactivity in plastic tubes with a Micromedic 10/600 automatic gamma counter.
Compounds were dissolved in dimethyl sulfoxide (DMSO) at a concentration of 10 mM and then further diluted with assay buffer. […] IC-50 values of displacement curves were determined using 7 concentrations of compound and were calculated using the ALLFIT computer program of DeLean, Munson and Rodbard (Am. J. Physiol. 235: E97-E102, 1978). Non-specific binding was determined as the displacement of the radioligand by 100 nM CCK-8 sulfate.

[2] = biological target: T2, peripheral type CCK receptors in rat pancreas (Rattus norvegicus, UniProt P30551); experiment: Binding to peripheral type CCK receptors in rat pancreas (3H-L364,718); details: read-out: Pancreas % inhibition in binding assay
T2 construct: from tissue; host or cells: pancreas membranes of male Sprague-Dawley rats
T2 sequence (P30551 1-444): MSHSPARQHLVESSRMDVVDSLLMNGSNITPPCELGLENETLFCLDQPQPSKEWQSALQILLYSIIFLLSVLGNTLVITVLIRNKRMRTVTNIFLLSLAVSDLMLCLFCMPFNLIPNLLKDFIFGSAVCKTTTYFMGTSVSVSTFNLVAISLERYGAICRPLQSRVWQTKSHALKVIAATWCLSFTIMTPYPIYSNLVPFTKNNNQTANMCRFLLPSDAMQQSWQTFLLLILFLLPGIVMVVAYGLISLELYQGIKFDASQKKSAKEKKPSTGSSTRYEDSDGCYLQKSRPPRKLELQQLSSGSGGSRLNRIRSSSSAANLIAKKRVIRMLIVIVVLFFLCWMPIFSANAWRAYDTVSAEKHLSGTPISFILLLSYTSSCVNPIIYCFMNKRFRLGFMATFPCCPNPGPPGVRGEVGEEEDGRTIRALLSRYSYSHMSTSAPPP
Method: Binding to peripheral type CCK receptors in rat pancreas was done according to the method of Chang et al. (Mol. Pharmacol. 30: 212-217, 1986) using ^3 H-L364, 718. Pancreas was obtained from male & Sprague-Dawley rats, 150-200 g, after decapitation, and dissected free from adipose and connective tissue. The tissue was homogenized in 30 volumes of 50 mM Tris buffer, pH 7.4 and centrifuged at 40,000 g for 10 min. The tissue pellet was washed by resuspension and centrifugation as described above. The final pellet was suspended in 500 volumes of assay buffer (50 mM Tris buffer, pH 7.4, 5 mM MgC2, 0.14 mg/ml bacitracin, and 5 mM dithiothreitol) to give a protein concentration of 30-60 μg/200 μl. Reagent volumes for the assay were the same as those used for CCK binding to brain membranes. […] The samples were incubated 1 hour at room temperature and then filtered as described for the CCK-brain receptor. Scintillation cocktail was added to the filters which were counted for radioactivity using a Micromedic Taurus automatic liquid scintillation counter.
Compound samples were prepared and IC-50 values were determined as described for the CCK-brain experiments. Non-specific binding was that amount left bound to the filters after adding 100 nM L-364,718.

[3] = biological target: T3, Gastrin receptor (Cavia porcellus, UniProt H0VZC5); experiment: Gastrin binding to guinea pig stomach mucosal membranes (125I-gastrin I); details: Mean ± SEM, n = 3
T3 construct: from tissue; host or cells: stomach fundus mucosal membranes of male Hartley guinea pigs
T3 sequence (H0VZC5 1-426): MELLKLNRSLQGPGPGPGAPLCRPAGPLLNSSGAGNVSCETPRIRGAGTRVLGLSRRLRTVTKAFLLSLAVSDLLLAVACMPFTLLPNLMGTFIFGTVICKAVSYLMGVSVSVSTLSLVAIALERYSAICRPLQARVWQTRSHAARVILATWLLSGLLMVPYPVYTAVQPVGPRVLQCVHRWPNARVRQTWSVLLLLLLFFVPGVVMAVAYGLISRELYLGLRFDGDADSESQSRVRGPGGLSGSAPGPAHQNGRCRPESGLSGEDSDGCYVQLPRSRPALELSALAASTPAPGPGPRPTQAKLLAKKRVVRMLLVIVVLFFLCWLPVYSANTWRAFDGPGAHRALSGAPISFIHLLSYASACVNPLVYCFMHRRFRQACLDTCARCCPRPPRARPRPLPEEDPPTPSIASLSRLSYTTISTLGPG
Method: The method used for gastrin binding to guinea pig stomach mucosal membranes was similar to that described by Takeuchi, Speir and Johnson (Am. J. Physiol. 237(3): E284-E294, 1979). Guinea pig stomach […] was obtained from male Hartley guinea pigs, 300-350 g, and the mucosa was scraped off with a glass The mucosa was homogenized in 50 mM Tris buffer, pH 7.4, containing 1 mM phenylmethanesulfonyl fluoride using a Dounce glass homogenizer, and the suspension was centrifuged at 40,000 g for 10 min. The resulting pellet was resuspended and centrifuged once more, the final pellet was then suspended in 100 ml assay buffer per 1 guinea pig stomach to give a protein concentration of 200-300 μg/200 μl. The assay buffer consisted of 50 mM Tris buffer, pH 7.4, 5 mM MgC2, 0.14 mg/ml bacitracin, and 1 μg/ml each of leupeptin, chymostatin, aprotinin and pepstatin. Reagent volumes for the assay were the same as those used for CCK binding to brain membranes. The radioactive ligand was 20 pM ^125 I-gastrin I, from DuPont NEN (NEX-176). The samples were incubated 3 hours at room temperature and filtered and counted as described for CCK binding to brain membranes. Compound samples were prepared and IC-50 values were determined as described for the CCK-brain receptor binding. Non-specific binding was determined using 100 nM gastrin I (human synthetic from Sigma Chemical Co.).

| inhibition at 10 µM ([2]; rat pancreas, 10 μM) | IC50 [3] | Compound | IC50 [1] | inhibition at 10 µM [2] | inhibition at 10 µM ([1]; read-out: Brain % inhibition in binding assay, mouse brain membranes, 10 μM) |
| --- | --- | --- | --- | --- | --- |
| – | – | O=c1c2ccccc2nc(CCc2c[nH]c3ccccc23)n1-c1ccccc1 [Example 1, 2-[2-(3-indolyl)ethyl]-3-phenyl-4-(3H)quinazolinone] | 670 ± 150 nM | 37% | – |
| -1.4% | – | CC(C)Oc1cccc(-n2c(CCc3c[nH]c4ccc(Br)cc34)nc3ccccc3c2=O)c1 [Example 4, 2-[2-(5-Bromoindol-3-yl)ethyl]-3-(3-isopropoxyphenyl)-4-quinazolinone] | – | – | – |
| – | – | O=c1c2ccccc2nc(CCc2c[nH]c3ccccc23)n1-c1cccc(F)c1 [Example 12] | 730 ± 170 nM | 11% | – |
| – | – | O=c1c2ccccc2nc(CCc2c[nH]c3ccccc23)n1-c1cccc(Cl)c1 [Example 13] | 690 ± 160 nM | 17% | – |
| – | – | Cc1cccc(-n2c(CCc3c[nH]c4ccccc34)nc3ccccc3c2=O)c1 [Example 14] | 150 ± 10 nM | 0.6% | – |
| – | – | COc1cccc(-n2c(CCc3c[nH]c4ccccc34)nc3ccccc3c2=O)c1 [Example 17] | 160 ± 30 nM | 16% | – |
| 5.3% | – | COc1cccc(-n2c(CCc3c[nH]c4ccc(Br)cc34)nc3ccccc3c2=O)c1 [Example 20] | – | – | – |
| -14% | – | CCOc1cccc(-n2c(CCc3c[nH]c4ccc(Br)cc34)nc3ccccc3c2=O)c1 [Example 23] | 34 ± 7 nM | – | – |
| – | – | CCc1cccc(-n2c(CCc3c[nH]c4ccccc34)nc3ccccc3c2=O)c1 [Example 28] | 72 ± 1 nM | 2.6% | – |
| -4.5% | 1100 ± 200 nM | CCc1cccc(-n2c(CCc3c[nH]c4ccc(Br)cc34)nc3ccccc3c2=O)c1 [Example 29] | 46 ± 10 nM | – | – |
| -9.1% | – | CCc1cccc(-n2c(CCc3c[nH]c4ccc(Cl)cc34)nc3ccccc3c2=O)c1 [Example 30] | 30 nM | – | – |
| 11% | – | CCc1cccc(-n2c(CCc3c[nH]c4ccc(OC)cc34)nc3ccccc3c2=O)c1 [Example 31] | 22 nM | – | – |
| 0.3% | – | COc1ccc(-n2c(CCc3c[nH]c4ccc(Br)cc34)nc3ccccc3c2=O)cc1 [Example 52] | 31 ± 6 nM | – | – |
| – | 1600 ± 100 nM | CCc1cccc(-n2c(CC(C)c3c[nH]c4ccc(Br)cc34)nc3ccccc3c2=O)c1 (stereo not drawn) [Example 64] | 100 ± 10 nM | – | – |

| Compound | inhibition at 10 µM ([2]; rat pancreas, 10 μM) | IC50 [3] | IC50 [1] | inhibition at 10 µM [2] | inhibition at 10 µM ([1]; read-out: Brain % inhibition in binding assay, mouse brain membranes, 10 μM) |
| --- | --- | --- | --- | --- | --- |
| O=c1c2ccccc2nc(CCc2c[nH]c3ccccc23)n1-c1cccc(Br)c1 [Example 15] | -5.7% | – | 370 ± 30 nM | – | – |
| O=c1c2ccccc2nc(CCc2c[nH]c3ccc(Cl)cc23)n1-c1cccc(Br)c1 [Example 16] | 2% | – | 190 nM | – | – |
| O=c1c2ccccc2nc(CCCc2c[nH]c3ccccc23)n1-c1ccccc1 [Example 62] | 11% | – | – | – | 20% |
